pIC50: −log10 of the molar value.
Columns and labels:
Phosphodiesterase 4 = Phosphodiesterase 4 (Homo sapiens, UniProt P27815+Q08499+Q07343+Q08493); assay: Inhibition of phosphodiesterase 4 (PDE4) prepared from human U937 cells; format: cell-based; conditions: u-937
Rattus norvegicus [1] = assay: Inhibition of LPS-induced TNF-alpha production in rats 0.5 hr after peroral administration; format: functional; conditions: po, read-out: ID50 (the source's name)
Rattus norvegicus [2] = assay: Inhibition of LPS-induced TNF-alpha production in rats at 3 mg/kg peroral dose after 0.5 hr; format: functional; conditions: route oral
Homo sapiens = species: Homo sapiens; assay: Inhibition of LPS-induced TNF-alpha production in human whole blood; format: functional, organism-based
Cavia porcellus [3] = assay: Inhibition of SRS-A-mediated bronchoconstriction and airway microvascular leakage in sensitized guinea pigs at 0.5 mg/kg 1 hr after oral dose; format: functional; conditions: Lung, read-out: ID50 (the source's name)
Rattus norvegicus [4] = assay: Inhibition of gastric emptying in rats after peroral administration; format: functional; conditions: Stomach, po, read-out: ID50 (the source's name)
Rattus norvegicus [5] = assay: Inhibition of LPS-induced TNF-alpha production in rats at 1 mg/kg peroral dose after 0.5 hr; format: functional; conditions: route oral
Cavia porcellus [6] = assay: Inhibition of SRS-A-mediated bronchoconstriction and airway microvascular leakage in sensitized guinea pigs at 0.15 mg/kg 1 hr after oral dose; format: functional; conditions: Lung, read-out: ID50 (the source's name)

Row | SMILES | IC50 (Phosphodiesterase 4) [nM] | ED50 (Rattus norvegicus [1]) [mg/kg] | also measured
1 | COc1ccc(C2(C#N)CCN(CC(=O)NO)CC2)cc1OC1CCC1 | 0.18 | 0.03 | 
2 | CCOc1ccc(C2(C#N)CCN(CC(=O)O)CC2)cc1OC1CCCC1 | 2500 |  | 
3 | CC(C)Oc1ccc(C2(C#N)CCN(CC(=O)NO)CC2)cc1OC1CCCC1 | > 30 |  | 
4 | COc1ccc(C2(C#N)CCN([C@H](C)C(=O)NO)CC2)cc1OC1CCCC1 | 0.91 |  | inhibition in vivo at 3 mg/kg (Rattus norvegicus [2]): 26%
5 | COc1ccc(C2(C#N)CCN([C@H](C)C(=O)O)CC2)cc1OC1CCCC1 | > 300 |  | 
6 | COc1ccc(C2(C#N)CCN(CC(=O)O)CC2)cc1OC1CCC1 | > 100 |  | 
7 | COc1ccc(C2(C#N)CCN(CC(=O)O)CC2)cc1OC1CCCC1 | 66 |  | inhibition in vivo at 3 mg/kg (Rattus norvegicus [2]): 74%
8 | CCOc1ccc(C2(C#N)CCN(CC(=O)NO)CC2)cc1OC1CCCC1 | 6.2 | 0.7 | 
9 | CC(C)Oc1ccc(C2(C#N)CCN(CC(=O)O)CC2)cc1OC1CCCC1 | > 1000 |  | 
10 | N#CC1(c2ccc(OC(F)F)c(OC3CCCC3)c2)CCN(CC(=O)O)CC1 | 65 | 1.1 | pIC50 (Homo sapiens): 6.08; ED50 (Cavia porcellus [3]): 4.2 mg/kg; ED50 (Rattus norvegicus [4]): 4.7 mg/kg
11 | COc1ccc(C2(C#N)CCN(CC(=O)NO)CC2)cc1OC(C)C | 1 | 0.09 | 
12 | COc1ccc(C2(C#N)CCN(C(C)(C)C(=O)O)CC2)cc1OC1CCCC1 | > 1000 |  | 
13 | COc1ccc(C2(C#N)CCN(C3(C(=O)O)CC3)CC2)cc1OC1CCCC1 | > 1000 |  | 
14 | COc1ccc(C2(C#N)CCN([C@@H](C)C(=O)NO)CC2)cc1OC1CCCC1 | 5.9 |  | inhibition in vivo at 3 mg/kg (Rattus norvegicus [2]): 49%
15 | COc1ccc(C2(C#N)CCN([C@@H](C)C(=O)O)CC2)cc1OC1CCCC1 | > 300 |  | 
16 | COc1ccc(C2(C#N)CCN(CC(=O)O)CC2)cc1OCC1CC1 | > 100 |  | inhibition in vivo at 1 mg/kg (Rattus norvegicus [5]): 12%
17 | COc1ccc(C2(C#N)CCN(CC(=O)O)CC2)cc1OC1Cc2ccccc2C1 | 67 |  | inhibition in vivo at 3 mg/kg (Rattus norvegicus [2]): 29%
18 | COc1ccc(C2(C#N)CCN(C3(C(=O)NO)CC3)CC2)cc1OC1CCCC1 | 4.6 | 2 | 
19 | COc1ccc(C2(C#N)CCN(CC(=O)NO)CC2)cc1OCC1CC1 | 0.29 | 0.03 | pIC50 (Homo sapiens): 8.68; ED50 (Cavia porcellus [6]): 0.3 mg/kg; ED50 (Rattus norvegicus [4]): 0.3 mg/kg
20 | CCOc1cc(C2(C#N)CCN(CC(=O)NO)CC2)ccc1OC | 0.52 | 0.04 | pIC50 (Homo sapiens): 8.30; ED50 (Cavia porcellus [6]): 0.04 mg/kg; ED50 (Rattus norvegicus [4]): 0.7 mg/kg
21 | COc1ccc(C2(C#N)CCN(CC(=O)O)CC2)cc1OC(C)C | > 100 |  | 
22 | N#CC1(c2ccc(OC(F)F)c(OC3CCCC3)c2)CCN(CC(=O)NO)CC1 | 0.051 | 0.02 | 
23 | COc1ccc(C2(C#N)CCN(CC(=O)O)CC2)cc1OC | > 100 |  | 
24 | COc1ccc(C2(C#N)CCN(C(C)(C)C(=O)NO)CC2)cc1OC1CCCC1 | 34 |  | 
25 | COc1ccc(C2(C#N)CCN(CC(=O)NO)CC2)cc1OC | 4.7 | 0.23 | 
26 | COc1ccc(C2(C#N)CCN(CC(=O)NO)CC2)cc1OC1CCCC1 | 0.08 | 0.04 | pIC50 (Homo sapiens): 8.05; ED50 (Cavia porcellus [6]): 0.3 mg/kg; ED50 (Rattus norvegicus [4]): 0.3 mg/kg
27 | CCOc1cc(C2(C#N)CCN(CC(=O)O)CC2)ccc1OC | > 100 |  | inhibition in vivo at 1 mg/kg (Rattus norvegicus [5]): 0%
28 | COc1ccc([C@]2(C#N)CC[C@@H](C(=O)O)CC2)cc1OC1CCCC1 [CILOMILAST] |  | 1.7 | ED50 (Cavia porcellus [6]): 4.5 mg/kg; ED50 (Rattus norvegicus [4]): 5.7 mg/kg

Source: ChEMBL document CHEMBL1146692, “Highly potent PDE4 inhibitors with therapeutic potential” (Bioorg Med Chem Lett, 2004)
